Measurements reported in the NIST ThermoML archive (doi:10.1016/j.jct.2018.01.019).
± gives the expanded uncertainty stated by the source.

Details: Crystal 2; DSC

Triple point temperature: 848 ± 2 K
SMILES: O=[Si]=O [silicon dioxide]
